Reference: patent US20240408170A1, “COMPOSITION FOR DECOMPOSITION OF TRYPSIN OR TMPRSS2” (Riken, priority 2021, published 2024)

How the values were obtained:
IgA heavy chain [1] = experiment: Ex vivo incubation of mouse faeces at 37° C. for 48 hours, western blot; settings: faeces of GF mice inoculated together with 2-mix, 37° C. 48 hours
Procedure: Mouse faecal samples were suspended and diluted 50-fold with phosphate buffered saline (PBS) to which a protease inhibitor cocktail (Roche) was added. Subsequently, the suspended sample was centrifuged at 15,000×g for 10 minutes at 4° C., and the supernatant was subjected to western blot. Mouse pancreatic tissue was rapidly frozen in liquid nitrogen. Proteins were extracted by TRIzol Reagent (Thermo Fisher Scientific K.K.), and the final protein concentration was adjusted to 4 μg/μL. For SDS-PAGE and blotting, Novex (registered trademark) NuPAGE (registered trademark) SDS-PAGE Gel system (Thermo Fisher Scientific K.K.) and iBlotTM 2 Dry Blotting System (Thermo Fisher Scientific K.K.) were used according to the manufacturer's instructions. The antibodies used are as follows. A rabbit anti-mouse PRSS2 antibody (Cosmo Bio Co., Ltd.), a rabbit anti-mouse HSP90 antibody (#4877, Cell Signaling Technology, Inc.), a rabbit anti-human PRSS2 antibody (LS-B15726, LSBio), a rabbit anti-human PRSS1 antibody (LS-331381, LSBio), a rabbit anti-mouse TMPRSS2 antibody (LS-C373022, LSBio, against the sequence of the protease domain), a rabbit anti-6-His antibody ([…]-[…], Bethyl Laboratories, Inc.), a goat anti-mouse IgA a chain antibody (HRP) (ab97235, Abcam plc.), a rat anti-mouse κ chain antibody (HRP) (ab99632, Abcam plc.), a rabbit anti-mouse CELA3b antibody (OACD03205, Aviva Systems Biology Corporation), an anti-rabbit IgG antibody (HRP) (#7074, Cell Signaling Technology, Inc.), and a rabbit anti-mouse Reg3 antibody (51153-[…], Sino Biological, Inc.).

Citrobacter rodentium = experiment: Vaccine administration experiment (peracetic acid-inactivated C. rodentium) followed by C. rodentium infection; format: in vivo, mouse; settings: with 2-mix
Procedure: For a colony-forming unit (CFU) assay, cecal patches or cecal luminal contents were collected, and after homogenization with PBS, serially diluted homogenates were plated on LB agar plates. CFU was counted after overnight culture at 37° C. under aerobic conditions.
For the ex vivo evaluation of C. rodentium-specific IgA, the cecal contents were resuspended in a 5× (w/v) LB medium and centrifuged. The supernatant was filtered through a sterilization filter unit with a PVDF film having a pore size of 0.22 μm, and then mixed with an equal amount of a C. rodentium culture solution cultured overnight in vitro. This mixture was gently shaken at room temperature and incubated for 1 hour to examine the aggregation effect with a confocal microscope (Leica TCS SP8). Alternatively, after the incubation, the mixture was centrifuged and washed once with PBS. Thereafter, the bacterial cell pellet was dissolved in a 1% SDS solution (diluted with a 50 mM Tris-HCl buffer solution to which 5 mM EDTA was added). The lysate was stained by western blot with a goat anti-mouse IgA a chain antibody (HRP) (ab97235) to evaluate the relative amount of C. rodentium-binding (C. rodentium-specific) IgA in the faecal contents.
For a vaccine administration experiment, 200 μL of 2-mix (B. uniformis and P. merdae)+P. clara (WT), or 2-mix+P. clara (Δ00502) was preliminarily administered to GF mice. After 4 days, C. rodentium (10^10 cells/mouse) inactivated with peracetic acid was orally administered to the mice once a week for 3 weeks. After 3 weeks of immunization, the mice were infected with C. rodentium (150 μL/mouse) cultured overnight by oral administration, and euthanized on day 14.
The C. rodentium inactivated by peracetic acid was produced as follows. C. rodentium cultured overnight was recovered by centrifugation (16,000×g, 10 minutes) and resuspended in sterilized PBS at a density of 10^10 cells per 1 mL. Peracetic acid (240990, Sigma-Aldrich) was added such that a final concentration was 0.4%, and incubation was performed at room temperature for 1 hour. […]

TMPRSS2 = target: T1, TMPRSS2 (Mus musculus, UniProt Q9JIQ8); experiment: Western blot of faeces of GF mice inoculated with P. clara strain together with 2-mix; format: in vivo
T1 construct: from tissue; host or cells: faeces of gnotobiotic mice
Procedure: (§1) Mouse faecal samples were suspended and diluted 50-fold with phosphate buffered saline (PBS) to which a protease inhibitor cocktail (Roche) was added. Subsequently, the suspended sample was centrifuged at 15,000×g for 10 minutes at 4° C., and the supernatant was subjected to western blot. Mouse pancreatic tissue was rapidly frozen in liquid nitrogen. Proteins were extracted by TRIzol Reagent (Thermo Fisher Scientific K.K.), and the final protein concentration was adjusted to 4 μg/μL. For SDS-PAGE and blotting, Novex (registered trademark) NuPAGE (registered trademark) SDS-PAGE Gel system (Thermo Fisher Scientific K.K.) and iBlot™ 2 Dry Blotting System (Thermo Fisher Scientific K.K.) were used according to the manufacturer's instructions.
(§2) The antibodies used are as follows. […]

IgA heavy chain [2] = experiment: as above; format: in vivo, mouse; settings: compared to Δ00502 or Δ00509
Procedure: as §1, §2

T1 sequence (Q9JIQ8 254-490 limits assumed): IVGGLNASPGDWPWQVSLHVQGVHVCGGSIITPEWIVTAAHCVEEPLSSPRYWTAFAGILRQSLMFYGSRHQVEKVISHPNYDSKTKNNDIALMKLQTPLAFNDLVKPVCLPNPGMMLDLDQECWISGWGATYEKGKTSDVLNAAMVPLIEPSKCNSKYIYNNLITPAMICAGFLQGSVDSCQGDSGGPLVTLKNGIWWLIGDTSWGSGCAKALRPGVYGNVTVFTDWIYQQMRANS

Substance: Paraprevotella clara [JCM 14859]
- IgA heavy chain in faeces (IgA heavy chain [1]): remained
- body weight after infection with C. rodentium (Citrobacter rodentium; orally vaccinated mice): body weight loss was reduced
- C. rodentium-specific IgA in cecal luminal contents (Citrobacter rodentium; western blot): significantly high amount of C. rodentium-specific IgA
- total IgA in cecal luminal contents (Citrobacter rodentium; western blot): significantly high total IgA amount
- amount of TMPRSS2 in the faeces (TMPRSS2): reduced
- IgA heavy chain in the faeces (IgA heavy chain [2]): larger amount
